Assay results: ChEMBL document CHEMBL3875161, “Thiazolidin-4-ones from 4-(methylthio)benzaldehyde and 4-(methylsulfonyl)benzaldehyde: Synthesis, antiglioma activity and cytotoxicity” (Eur J Med Chem, 2016)
Activity calls are given as the source filed them. No cut-off for these calls is given here.

Key:
[1] = Cytotoxicity against Wistar rat C6 cells assessed as decrease in cell viability at 100 uM after 48 hrs by MTT assay relative to control; assay type: functional
[2] = Cytotoxicity against Wistar rat C6 cells assessed as decrease in cell viability at 100 uM after 72 hrs by MTT assay relative to control; assay type: functional
C6 [3] = test: Induction of necrosis in Wistar rat C6 cells at 50 to 100 uM after 72 hrs by propidium iodide staining based fluorescence microscopic analysis; assay type: functional, cell-based
C6 [4] = test: Cytotoxicity against Wistar rat C6 cells assessed as inhibition of cell viability at 5 uM after 72 hrs by MTT assay; assay type: functional, cell-based
Rattus norvegicus [5] = organism: Rattus norvegicus; test: Cytotoxicity against Wistar rat primary astrocytes assessed as inhibition of cell viability at 250 uM after 72 hrs by MTT assay; assay type: toxicity; conditions: astrocyte
Rattus norvegicus [6] = organism: Rattus norvegicus; test: Cytotoxicity against Wistar rat primary astrocytes assessed as inhibition of cell viability at 100 uM after 72 hrs by MTT assay; assay type: toxicity; conditions: astrocyte
C6 [7] = test: Induction of necrosis in Wistar rat C6 cells assessed as lowering of cell density at 50 to 100 uM; assay type: functional, cell-based
C6 [8] = test: Induction of necrosis in Wistar rat C6 cells assessed as change in cell morphology at 50 to 100 uM; assay type: functional, cell-based
C6 [9] = test: Cytotoxicity against Wistar rat C6 cells assessed as inhibition of cell viability at 50 uM after 48 hrs by MTT assay; assay type: functional, cell-based
C6 [10] = test: Cytotoxicity against Wistar rat C6 cells assessed as inhibition of cell viability at 50 uM after 72 hrs by MTT assay; assay type: functional, cell-based
C6 [11] = test: Cytotoxicity against Wistar rat C6 cells assessed as inhibition of cell viability at 25 uM after 48 hrs by MTT assay; assay type: functional, cell-based
C6 [12] = test: Cytotoxicity against Wistar rat C6 cells assessed as inhibition of cell viability at 25 uM after 72 hrs by MTT assay; assay type: functional, cell-based

| SMILES | Activity [1] [%] | Activity [2] [%] | Activity (Rattus norvegicus [5]) | Activity (Rattus norvegicus [6]) | further results |
| --- | --- | --- | --- | --- | --- |
| CSc1ccc(C2SCC(=O)N2Cc2ccccn2)cc1 (stereo not drawn) | 48 | 75 | Non-Toxic | Non-Toxic | Activity (C6 [3]): Active; inhibition (C6 [4]): Active; Activity (C6 [7]): Active; Activity (C6 [8]): Active |
| CS(=O)(=O)c1ccc(C2SCC(=O)N2c2ccc3c(c2)OCO3)cc1 (stereo not drawn) |  |  | Non-Toxic | Non-Toxic |  |
| CSc1ccc(N2C(=O)CSC2c2ccc(S(C)(=O)=O)cc2)cc1 (stereo not drawn) |  |  | Non-Toxic | Non-Toxic |  |
| CSc1ccc(C2SCC(=O)N2c2ccc(SC)cc2)cc1 (stereo not drawn) |  |  | Non-Toxic | Non-Toxic |  |
| CSc1ccc(C2SCC(=O)N2CCCN2CCCCC2)cc1 (stereo not drawn) | 52.2 | 78 | Toxic | Non-Toxic | Activity (C6 [3]): Active; inhibition (C6 [4]): Active; Activity (C6 [7]): Active; Activity (C6 [8]): Active |
| CSc1ccc(C2SCC(=O)N2c2ccc3c(c2)OCO3)cc1 (stereo not drawn) | 61.2 | 81.7 | Non-Toxic | Non-Toxic | Activity (C6 [3]): Active; inhibition (C6 [9]): Active; inhibition (C6 [10]): Active; Activity (C6 [7]): Active; Activity (C6 [8]): Active |
| CS(=O)(=O)c1ccc(C2SCC(=O)N2CCN2CCCCC2)cc1 (stereo not drawn) |  |  | Non-Toxic | Non-Toxic |  |
| CSc1ccc(C2SCC(=O)N2CCN2CCCCC2)cc1 (stereo not drawn) |  | 61 | Toxic | Non-Toxic |  |
| CS(=O)(=O)c1ccc(C2SCC(=O)N2CCCN2CCCCC2)cc1 (stereo not drawn) |  |  | Non-Toxic | Non-Toxic |  |
| CS(=O)(=O)c1ccc(C2SCC(=O)N2c2ccccn2)cc1 (stereo not drawn) |  |  | Non-Toxic | Non-Toxic |  |
| Cn1nnc2c(C(N)=O)ncn2c1=O [TEMOZOLOMIDE] | 42.3 | 39.7 |  |  |  |
| CS(=O)(=O)c1ccc(C2SCC(=O)N2Cc2ccccn2)cc1 (stereo not drawn) | 47.2 | 77 | Non-Toxic | Non-Toxic | Activity (C6 [3]): Active; inhibition (C6 [11]): Active; inhibition (C6 [12]): Active; Activity (C6 [7]): Active; Activity (C6 [8]): Active |
| CCN(CC)CCCN1C(=O)CSC1c1ccc(S(C)(=O)=O)cc1 (stereo not drawn) |  |  | Toxic | Non-Toxic |  |
| CSc1ccc(C2SCC(=O)N2c2ccccn2)cc1 (stereo not drawn) |  |  | Non-Toxic | Non-Toxic |  |
| CCN(CC)CCCN1C(=O)CSC1c1ccc(SC)cc1 (stereo not drawn) |  | 67.5 | Toxic | Non-Toxic |  |
